Reference: publication PMC9144902, “Metal(II) Complexes of the Fluoroquinolone Fleroxacin: Synthesis, Characterization and Biological Profile” (Pharmaceutics, 2022)

Columns and labels:
[1] = molecular target: T1, bovine serum albumin (BSA) (Bos taurus, UniProt P02769); assay: Albumin binding by tryptophan fluorescence emission quenching; settings: for K(BSA), BSA-binding constant / kq(BSA), BSA-quenching constant: BSA 3 μM; for K(BSA), BSA-binding constant: buffer pH 7.0, Scatchard equation; for kq(BSA), BSA-quenching constant: buffer pH 7.0, λexc 295 nm, Stern–Volmer, τ0 = 10^–8 s; for BSA fluorescence, % of the initial fluorescence intensity (I/Io): λem,max = 342 nm, final value of titration (Figure S11)
T1 construct: purchased
Procedure: (§1) Serum albumins (Sas) are the most abundant serum proteins and play a role in the circulatory system, primarily in the transport of drugs and other bioactive small molecules through the bloodstream.
(§2) The SA-quenching constants (kq) for the compounds (Table 5) were calculated with the Stern–Volmer quenching equation (Equations (S2) and (S3)).
(§3) Albumin-binding constants (K) were calculated using the Scatchard equation (Equation (S4)). […]
(§4) S2. Interaction with serum albumins
(§5) The albumin–binding study for the compounds was carried out b y fluorescence emission

[2] = molecular target: T2, human serum albumin (HSA) (Homo sapiens, UniProt P02768); assay: as above; settings: for K(HSA), HSA-binding constant / kq(HSA), HSA-quenching constant: HSA 3 μM; for K(HSA), HSA-binding constant: buffer pH 7.0, Scatchard equation; for kq(HSA), HSA-quenching constant: buffer pH 7.0, λexc 295 nm, Stern–Volmer, τ0 = 10^–8 s; for HSA fluorescence, % of the initial fluorescence intensity (I/Io): λem,max = 351 nm, final value of titration (Figure S10)
T2 construct: purchased
Procedure: as §1, §2, §3, §4, §5

EB–DNA adduct (CT DNA) = assay: Competitive study with EB (EB–DNA fluorescence quenching); type: binding, calf; settings: for Ksv, Stern–Volmer constant: EB–DNA adduct; for ΔI/Io, percentage of EB–DNA fluorescence quenching: [EB] = 20 μM, [DNA] = 26 μM, λexc 540 nm, λem 592 nm; for EB–DNA relative fluorescence emission intensity, % of the initial (I/Io): λemission = 592 nm, final value (up to), Figure S14; for kq, EB–DNA quenching constant: τo = 23 ns
Procedure: Ethidium bromide is a typical marker of intercalation because it can intercalate between adjacent DNA bases with its planar phenanthridine ring.
The fluorescence emission spectra of the EB–DNA adduct ([EB] = 20 μM, [DNA] = 26 μM) in the absence and presence of the compounds were recorded at increasing amounts of the respective compounds. […] As a conclusion, an intercalative interaction of the complexes with CT DNA can be proposed.
The values of the Stern–Volmer constants (Ksv) for the compounds were calculated using the linear Stern–Volmer equation (Equation (S2)) and were of the order of 10^5 M^−1 (Table 8), indicating tight binding of the complexes with DNA [61]. The Ksv values for the complexes are in the range found for a number of metal(II)–quinolone complexes, and complex 12 presents the highest Ksv value (Ksv = 7.25(±0.30) × 10^5 M^−1) among the compounds studied. In addition, the EB–DNA quenching constants (kq) for the compounds were calculated with Equation (S3), assuming τo = 23 ns as the fluorescence lifetime. The values of kq (Table 8) are much higher than the value of 10^10 M^−1s^−1, indicating a static mechanism of EB–DNA fluorescence quenching induced by the compounds, which can result from the formation of a new adduct apparently consisting of each complex and DNA [61].
In order to determine and confirm the DNA–binding mode of the compounds, a competitive study with EB as an intercalating marker is performed b y fluorescence emission spectroscopy.
Therefo re, the E B–displacing abilit y of the compounds from its EB –DN A conjugate was ex amined.
The DNA–EB adduct was prepared b y addition of 20 μM EB and 26 μM CT DNA in buffer solution (150 mM NaCl and 15 mM trisodium citrate at pH 7.0). The potential intercalation of the compounds between the DNA–bases was studied by the addition of a certain amount of the compound solution into the EB–DNA adduct solution. The influence of the compounds on the EB – DNA solution was monitored through the changes of the fluorescence emission spectra at excitation […]
wavelen gth (λex ) at 540 nm [S3]. […]
room temperature in solution or in the presence of DNA, under the same experimental conditions (λex = 540 nm). Bearing t hat in mind, the observed quenching of the EB–DNA solution is evidentl y associated to the displacement of EB from its EB–DNA adduct.
The quenching effici ency (KSV) for each compound was assessed according to the Stern – Volmer equation: Io =1+ k τ [Q] = 1+ K [Q], (eq. S2) [S3] where I0 and I = the fluorescence […]
emission intensities of EB–DNA in the absence and presence of the quencher, respectivel y, [Q] = the concentration of the quencher (i.e. compounds). KSV is obtained from t he Stern–Volmer plots b y the slope of the diagram I0/ I versus [Q]. Taking τ0 = 23 ns as the fluorescence lifetime of the EB– DNA s ystem [S5], the EB –DNA quenching constants (k q) of the compounds can be determined accordin g to eq.S3: K SV = kqτo . […]
[S2] Irgi, E.P.; Geromichalos, G.D.; Balala, S.; Kljun, J.; Kalogiannis, S.; Papadopoulos, A.; Turel, I.; Psomas, G. Cobalt(II) complexes with quinolone antimicrobial drug oxolinic acid: […]
[ S 5] Heller, D.P.; Greenstock, C.L. Fluorescence lifetime analysis of DNA intercalated ethidium bromide and quenching by free d ye. Biophys. Chem . 1994, 50, 305–312.

[3] = system: Bacillus subtilis ATCC 6633; assay: Antimicrobial activity, MIC determination; type: cell-based; settings: B. subtilis; 24-h incubation, 37°C
Procedure: (§6) The in vitro antimicrobial activity of the compounds was evaluated by determining the minimum inhibitory concentration (MIC) against the Gram-positive microorganisms Staphylococcus aureus ATCC 6538 (S. aureus) and Bacillus subtilis ATCC 6633 (B. subtilis) and the Gram-negative microorganism Xanthomonas campestris ATCC 1395 (X. campestris). The affinity of the compounds for bovine serum albumin (BSA) and human serum albumin (HSA) was studied by fluorescence emission spectroscopy, and the corresponding binding constants were determined. Furthermore, the interaction of the compounds with calf-thymus DNA (CT DNA) was investigated to determine the possible mode of interaction by the following methods: (i) UV–vis spectroscopy (where the DNA-binding constants of the complexes (Kb) were also determined), (ii) DNA-viscosity measurements, (iii) cyclic voltammetry and (iv) competitive DNA-binding studies with the classic intercalator ethidium bromide (EB) performed by fluorescence emission spectroscopy.
(§7) Three bacterial strains, one Gram(−) (X. campestris) and two Gram(+) (S. aureus and B. subtilis), were used in order to test the antimicrobial activity of the compounds.
(§8) The antimicrobial activity of the compounds was evaluated b y determining their respective MIC values towards one Gram–( –) (Xanthomonas campestris ATCC 1395 (X. campestris)) and two Gram–(+) (Staphylococcus aureus ATCC 6538 (S. aureus) and Bacillus subtilis ATCC 6633 (B. subtilis)) bacterial species. Cultures of these microbial strains were grown on a rich selective agar medium and stored at 4°C. The selective media used were Nutrient Agar or Broth for B. subtilis and S. aureus, and Yeast Mold Agar or Broth for X. campestris . Cells picked from the surface of the stored cultures were used to initiate liquid pre–cultures of the same selective medium at an initial turbidity of roughl y 1 McFarland unit. Pre–cultures were incubated for 24 h in a rotar y sh aking incubator and subsequently the y were used to inoculate the test cultures used for the determination of MIC at an initial turbidity of 0.5 McFarland units. The test cultures consisted of Mueller–Hinton broth (Deben Diagnostics Ltd) containing different concentrations of the compounds. Different concentrations were achieved as follows: the compounds were freshly dissolved in DMSO to a concentration of 1 mg/mL and they were diluted with DMSO, using the method of progressive double dilution. Therefore, working solutions with decreasing concentrations of the compounds under investigation were achieved. The working solutions were subsequently diluted to the final desired concentration b y addition to the growth medium at a proportion of 2:98. MIC values were determined as the lowest concentrations of the tested compounds that inhibited visible growth of each respective organism after a 24–h incubation [ S1]. Bacterial growth was determined b y measuring the turbidit y of appropriatel y diluted cultures at 600 nm with reference to equall y diluted sterile growth medium and the inhibition achieved was calculated b y comparing the turbidit y of each culture to the average of the turbidit y of three non–inhibited cultures. All test cultures were grown in triplicates and for the determination of MIC, growth had to be inhibited in at least two cultures of the triplicate. In cubation temperatur e at all stages was 37°C ex cept for X. campestris t h at was cultivated at 28°C [S2]. […]
(§9) The fluorescence spectra of the compounds were recorded under the same experimental conditions and presented a low–intensity emission band in the region 405–410 nm .

[4] = system: Xanthomonas campestris ATCC 1395; assay: Antimicrobial activity, MIC determination; type: cell-based; settings: X. campestris; 24-h incubation, 28°C
Procedure: as §6, §7, §8, §9

[5] = system: Staphylococcus aureus ATCC 6538; assay: Antimicrobial activity, MIC determination; type: cell-based; settings: S. aureus; 24-h incubation, 37°C
Procedure: as §6, §7, §8, §9

T2 sequence (P02768 25-609): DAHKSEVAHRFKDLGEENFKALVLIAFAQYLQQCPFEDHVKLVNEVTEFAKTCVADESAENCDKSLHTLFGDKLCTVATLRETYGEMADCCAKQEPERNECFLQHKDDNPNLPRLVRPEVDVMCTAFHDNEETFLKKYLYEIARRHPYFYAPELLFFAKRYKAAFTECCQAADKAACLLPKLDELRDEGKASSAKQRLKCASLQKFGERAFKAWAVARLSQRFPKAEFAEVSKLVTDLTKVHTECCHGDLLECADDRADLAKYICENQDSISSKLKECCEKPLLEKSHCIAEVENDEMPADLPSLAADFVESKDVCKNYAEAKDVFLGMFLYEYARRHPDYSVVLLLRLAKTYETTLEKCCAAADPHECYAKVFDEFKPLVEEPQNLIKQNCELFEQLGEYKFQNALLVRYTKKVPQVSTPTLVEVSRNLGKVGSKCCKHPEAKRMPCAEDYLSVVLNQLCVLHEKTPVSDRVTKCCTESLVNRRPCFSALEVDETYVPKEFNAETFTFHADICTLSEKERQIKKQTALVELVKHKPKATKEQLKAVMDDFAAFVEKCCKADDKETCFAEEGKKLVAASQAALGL
T1 sequence (P02769 25-607): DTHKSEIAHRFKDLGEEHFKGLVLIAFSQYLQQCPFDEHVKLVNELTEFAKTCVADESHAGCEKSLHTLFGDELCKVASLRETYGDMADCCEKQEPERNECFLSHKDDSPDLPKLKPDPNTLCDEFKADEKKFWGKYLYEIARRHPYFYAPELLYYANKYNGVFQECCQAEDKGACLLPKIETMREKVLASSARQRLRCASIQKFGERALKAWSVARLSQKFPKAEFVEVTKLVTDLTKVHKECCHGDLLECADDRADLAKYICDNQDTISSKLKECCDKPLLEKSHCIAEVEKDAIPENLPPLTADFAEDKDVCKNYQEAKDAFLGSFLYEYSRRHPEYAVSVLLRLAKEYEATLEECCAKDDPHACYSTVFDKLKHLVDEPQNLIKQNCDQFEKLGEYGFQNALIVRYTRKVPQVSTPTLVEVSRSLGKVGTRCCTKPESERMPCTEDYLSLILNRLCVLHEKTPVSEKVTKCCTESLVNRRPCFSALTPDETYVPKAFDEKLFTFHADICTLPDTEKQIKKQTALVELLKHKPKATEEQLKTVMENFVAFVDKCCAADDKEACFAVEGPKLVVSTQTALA

| Compound | K(BSA), BSA-binding constant [1] | kq(BSA), BSA-quenching constant [1] | BSA fluorescence, % of the initial fluorescence intensity (I/Io) [1] | K(HSA), HSA-binding constant [2] | kq(HSA), HSA-quenching constant [2] | HSA fluorescence, % of the initial fluorescence intensity (I/Io) [2] | Ksv, Stern–Volmer constant (EB–DNA adduct (CT DNA)) | ΔI/Io, percentage of EB–DNA fluorescence quenching (EB–DNA adduct (CT DNA)) | EB–DNA relative fluorescence emission intensity, % of the initial (I/Io) (EB–DNA adduct (CT DNA)) | kq, EB–DNA quenching constant (EB–DNA adduct (CT DNA)) | MIC [3] | MIC (values in parentheses) [3] | MIC [4] | MIC (values in parentheses) [4] | MIC [5] | MIC (values in parentheses) [5] |
| --- | --- | --- | --- | --- | --- | --- | --- | --- | --- | --- | --- | --- | --- | --- | --- | --- |
| CN1CCN(c2c(F)cc3c(=O)c(C(=O)[O-])cn(CCF)c3c2F)CC1.CN1CCN(c2c(F)cc3c(=O)c(C(=O)[O-])cn(CCF)c3c2F)CC1.[Zn+2].c1ccc(Nc2ccccn2)nc1 [complex 13, [Zn(flrx)2(bipyam)]] | 3.60(±0.14) × 10^4 M^−1 | 3.37(±0.14) × 10^13 M^−1s^−1 | 14.6% | 3.69(±0.14) × 10^4 M^−1 | 1.23(±0.05) × 10^13 M^−1s^−1 | 27.9% | 6.51(±0.19) × 10^5 M^–1 | 81.8% | 18.2% | 2.84(±0.08) × 10^13 M^−1s^−1 | 4 µg/mL | 4.1 µM | 16 µg/mL | 16.4 µM | 8 µg/mL | 8.2 µM |
| CN1CCN(c2c(F)cc3c(=O)c(C(=O)[O-])cn(CCF)c3c2F)CC1.CN1CCN(c2c(F)cc3c(=O)c(C(=O)[O-])cn(CCF)c3c2F)CC1.CO.CO.[Zn+2] [complex 3, [Zn(flrx)2(MeOH)2]] | 1.86(±0.08) × 10^5 M^−1 | 4.55(±0.21) × 10^13 M^−1s^−1 | 10.8% | 6.15(±0.25) × 10^4 M^−1 | 2.26(±0.10) × 10^13 M^−1s^−1 | 19.8% | 6.07(±0.17) × 10^5 M^–1 | 85.9% | 14.1% | 2.64(±0.07) × 10^13 M^−1s^−1 | 8 µg/mL | 9.2 µM | 32 µg/mL | 36.8 µM | 8 µg/mL | 9.2 µM |
| CN1CCN(c2c(F)cc3c(=O)c(C(=O)[O-])cn(CCF)c3c2F)CC1.CN1CCN(c2c(F)cc3c(=O)c(C(=O)[O-])cn(CCF)c3c2F)CC1.[Zn+2].c1cnc2c(c1)ccc1cccnc12 [complex 14, [Zn(flrx)2(phen)]] | 5.56(±0.25) × 10^4 M^−1 | 1.61(±0.07) × 10^13 M^−1s^−1 | 25.8% | 6.16(±0.43) × 10^4 M^−1 | 1.10(±0.04) × 10^13 M^−1s^−1 | 33.5% | 3.03(±0.05) × 10^5 M^–1 | 77.9% | 22.1% | 1.32(±0.02) × 10^13 M^−1s^−1 | 8 µg/mL | 8.1 µM | 16 µg/mL | 16.3 µM | 8 µg/mL | 8.1 µM |
| CN1CCN(c2c(F)cc3c(=O)c(C(=O)[O-])cn(CCF)c3c2F)CC1.CN1CCN(c2c(F)cc3c(=O)c(C(=O)[O-])cn(CCF)c3c2F)CC1.[Zn+2].c1ccc(-c2ccccn2)nc1 [complex 12, [Zn(flrx)2(bipy)]] | 7.89(±0.33) × 10^4 M^−1 | 1.74(±0.08) × 10^13 M^−1s^−1 | 14.1% | 1.04(±0.06) × 10^5 M^−1 | 1.24(±0.04) × 10^13 M^−1s^−1 | 25.9% | 7.25(±0.30) × 10^5 M^–1 | 88.6% | 11.4% | 3.15(±0.13) × 10^13 M^−1s^−1 | 8 µg/mL | 8.3 µM | 16 µg/mL | 16.7 µM | 8 µg/mL | 8.3 µM |
